Results on 9 compounds are retold here after US11306079B2, “3-(5-amino-pyrazin-2-yl)-benzenesulfonamide derivatives and related compounds as PI3K-gamma kinase inhibitors” (Incyte Corporation, priority 2017, dated 2022).

SMILES strings stand for the structures. Structures can show the parent of a compound that is named as a salt. Some results are limits rather than exact numbers.

For orientation: IC50 means the midpoint of a concentration-inhibition curve.

Assay [1] concerns the target PI3Kγ (p110γ) Recombinant Human Protein (Homo sapiens (Human), UniProt P48736). Put plainly: PI3K-γ Scintillation Proximity Assay. Type of assay: biochemical. As to conditions: 20 μM PIP2, 2 μM ATP, 13 nM PI3Kγ, 120 min, room temperature. An excerpt: Example B. PI3K-γ Scintillation Proximity Assay
[γ-^33P]ATP (10 mCi/mL) and Wheat Germ Agglutinin (WGA) YSi SPA Scintillation Beads was purchased from Perkin-Elmer (Waltham, Mass.). Lipid kinase substrate, D-myo-Phosphatidylinositol 4,5-bisphosphate (PtdIns(4,5)P2)D (+)-sn-1,2-di-O-octanoylglyceryl, 3-O-phospho linked (PIP2), CAS 204858-53-7, was purchased from Echelon Biosciences (Salt Lake City, Utah). PI3Kγ (p110γ) Recombinant Human Protein was purchased from Life technology (Grand island, NY), ATP, MgCl2, DTT, EDTA, MOPS and CHAPS were purchased from Sigma-Aldrich (St. Louis, Mo.).
(§1) The kinase reaction was conducted in polystyrene 384-well Greiner Bio-one white plate from Thermo Fisher Scientific in a final volume of 25 μL. Inhibitors were first diluted serially in DMSO and added to the plate wells before the addition of other reaction components. The final concentration of DMSO in the assay was 2%. The PI3Kγ assay was carried out at room temperature in 20 mM MOPS, pH 6.7, 10 mM MgCl2, 5 mM DTT and CHAPS 0.03%. Reactions were initiated by the addition of ATP, the final reaction mixture consisted of 20 μM PIP2, 2 μM ATP, 0.5 μCi [γ-^33P] ATP, 13 nM PI3Kγ. Reactions were incubated for 120 min and terminated by the addition of 40 μL SPA beads suspended in quench buffer: 163 mM potassium phosphate pH 7.8, 20% glycerol, 25 mM EDTA. The final concentration of SPA beads is 1.0 mg/mL. After the plate sealing, plates were shaken overnight at room temperature and centrifuged at 1500 rpm for 10 min, the radioactivity of the product was determined by scintillation counting on Topcount (Perkin-Elmer). IC50 determination was performed by fitting the curve of percent of the solvent control activity versus the log of the inhibitor concentration using the GraphPad Prism 6.0 software.
(In general: In a scintillation proximity assay essentially only radioactivity close to the scintillant gives light.)

Assay [2] deals with PI3Kδ (p110δ/p85α) Recombinant Human Protein (Homo sapiens (Human), UniProt O00329). As to the kind of experiment: PI3Kδ Scintillation Proximity Assay. It counts as biochemical. The conditions noted are these: 20 μM PIP2, 2 μM ATP, 3.4 nM PI3Kδ, 120 min, room temperature.
Text: Example C. PI3Kδ Scintillation Proximity Assay
[γ-^33P]ATP (10 mCi/mL) and Wheat Germ Agglutinin (WGA) YSi SPA Scintillation Beads was purchased from Perkin-Elmer (Waltham, Mass.). Lipid kinase substrate, D-myo-Phosphatidylinositol 4,5-bisphosphate (PtdIns(4,5)P2)D (+)-sn-1,2-di-O-octanoylglyceryl, 3-O-phospho linked (PIP2), CAS 204858-53-7, was purchased from Echelon Biosciences (Salt Lake City, Utah). PI3Kδ (p110δ/p85α) Recombinant Human Protein was purchased from Eurofins (St Charles, Mo.). ATP, MgCl2, DTT, EDTA, MOPS and CHAPS were purchased from Sigma-Aldrich (St. Louis, Mo.).
as §1, with “PI3Kδ” for “PI3Kγ”, “3.4” for “13”, “PI3Kδ.” for “PI3Kγ.”

Chain of PI3Kδ (p110δ/p85α) Recombinant Human Protein (O00329 whole entry): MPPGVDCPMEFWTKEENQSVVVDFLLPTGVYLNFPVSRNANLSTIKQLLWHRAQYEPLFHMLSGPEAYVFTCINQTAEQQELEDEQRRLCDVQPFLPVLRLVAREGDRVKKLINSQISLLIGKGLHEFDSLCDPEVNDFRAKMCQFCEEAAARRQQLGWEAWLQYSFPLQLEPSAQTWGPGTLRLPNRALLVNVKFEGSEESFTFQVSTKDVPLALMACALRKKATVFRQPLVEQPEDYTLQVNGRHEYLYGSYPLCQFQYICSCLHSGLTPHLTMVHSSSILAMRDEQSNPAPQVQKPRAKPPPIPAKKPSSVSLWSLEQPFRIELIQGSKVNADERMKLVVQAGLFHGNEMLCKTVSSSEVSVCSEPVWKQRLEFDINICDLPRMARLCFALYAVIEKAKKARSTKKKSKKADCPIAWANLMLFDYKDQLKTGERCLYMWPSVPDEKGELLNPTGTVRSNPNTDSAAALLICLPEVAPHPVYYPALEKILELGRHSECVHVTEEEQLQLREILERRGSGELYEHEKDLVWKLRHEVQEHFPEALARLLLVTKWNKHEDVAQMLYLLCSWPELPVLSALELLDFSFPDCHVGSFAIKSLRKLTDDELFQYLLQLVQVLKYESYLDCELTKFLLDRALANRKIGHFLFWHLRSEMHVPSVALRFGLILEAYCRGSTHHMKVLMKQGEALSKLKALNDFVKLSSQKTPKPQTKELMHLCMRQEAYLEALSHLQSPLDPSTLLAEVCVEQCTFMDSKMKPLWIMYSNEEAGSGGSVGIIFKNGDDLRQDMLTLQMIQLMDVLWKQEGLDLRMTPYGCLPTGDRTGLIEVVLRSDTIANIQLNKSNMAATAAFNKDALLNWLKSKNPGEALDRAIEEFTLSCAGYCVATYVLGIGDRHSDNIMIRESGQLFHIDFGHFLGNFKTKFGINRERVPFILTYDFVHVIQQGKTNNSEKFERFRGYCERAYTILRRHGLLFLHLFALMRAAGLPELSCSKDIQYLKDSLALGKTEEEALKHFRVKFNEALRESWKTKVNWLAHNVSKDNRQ
Chain of PI3Kδ (p110δ/p85α) Recombinant Human Protein (P27986 whole entry partner): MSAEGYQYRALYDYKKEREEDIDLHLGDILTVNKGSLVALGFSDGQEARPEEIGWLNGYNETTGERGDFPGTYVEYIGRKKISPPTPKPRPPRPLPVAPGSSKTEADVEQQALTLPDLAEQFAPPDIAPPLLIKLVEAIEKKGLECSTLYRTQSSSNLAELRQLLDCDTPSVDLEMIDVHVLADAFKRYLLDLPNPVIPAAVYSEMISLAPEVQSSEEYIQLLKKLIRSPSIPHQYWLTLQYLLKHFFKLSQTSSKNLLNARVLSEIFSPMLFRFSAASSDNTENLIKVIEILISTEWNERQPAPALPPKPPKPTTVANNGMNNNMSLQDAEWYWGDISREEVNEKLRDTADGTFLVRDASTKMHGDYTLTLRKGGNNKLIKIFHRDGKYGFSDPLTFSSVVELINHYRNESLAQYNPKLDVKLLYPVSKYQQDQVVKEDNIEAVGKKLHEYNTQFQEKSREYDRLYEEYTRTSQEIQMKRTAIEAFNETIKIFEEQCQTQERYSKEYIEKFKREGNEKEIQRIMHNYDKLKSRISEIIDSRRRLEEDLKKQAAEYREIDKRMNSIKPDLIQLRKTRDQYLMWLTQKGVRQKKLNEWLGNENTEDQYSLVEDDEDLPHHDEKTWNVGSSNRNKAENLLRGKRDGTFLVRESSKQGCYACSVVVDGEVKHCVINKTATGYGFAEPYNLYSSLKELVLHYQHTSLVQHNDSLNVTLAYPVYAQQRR
Chain of PI3Kγ (p110γ) Recombinant Human Protein (P48736 whole entry): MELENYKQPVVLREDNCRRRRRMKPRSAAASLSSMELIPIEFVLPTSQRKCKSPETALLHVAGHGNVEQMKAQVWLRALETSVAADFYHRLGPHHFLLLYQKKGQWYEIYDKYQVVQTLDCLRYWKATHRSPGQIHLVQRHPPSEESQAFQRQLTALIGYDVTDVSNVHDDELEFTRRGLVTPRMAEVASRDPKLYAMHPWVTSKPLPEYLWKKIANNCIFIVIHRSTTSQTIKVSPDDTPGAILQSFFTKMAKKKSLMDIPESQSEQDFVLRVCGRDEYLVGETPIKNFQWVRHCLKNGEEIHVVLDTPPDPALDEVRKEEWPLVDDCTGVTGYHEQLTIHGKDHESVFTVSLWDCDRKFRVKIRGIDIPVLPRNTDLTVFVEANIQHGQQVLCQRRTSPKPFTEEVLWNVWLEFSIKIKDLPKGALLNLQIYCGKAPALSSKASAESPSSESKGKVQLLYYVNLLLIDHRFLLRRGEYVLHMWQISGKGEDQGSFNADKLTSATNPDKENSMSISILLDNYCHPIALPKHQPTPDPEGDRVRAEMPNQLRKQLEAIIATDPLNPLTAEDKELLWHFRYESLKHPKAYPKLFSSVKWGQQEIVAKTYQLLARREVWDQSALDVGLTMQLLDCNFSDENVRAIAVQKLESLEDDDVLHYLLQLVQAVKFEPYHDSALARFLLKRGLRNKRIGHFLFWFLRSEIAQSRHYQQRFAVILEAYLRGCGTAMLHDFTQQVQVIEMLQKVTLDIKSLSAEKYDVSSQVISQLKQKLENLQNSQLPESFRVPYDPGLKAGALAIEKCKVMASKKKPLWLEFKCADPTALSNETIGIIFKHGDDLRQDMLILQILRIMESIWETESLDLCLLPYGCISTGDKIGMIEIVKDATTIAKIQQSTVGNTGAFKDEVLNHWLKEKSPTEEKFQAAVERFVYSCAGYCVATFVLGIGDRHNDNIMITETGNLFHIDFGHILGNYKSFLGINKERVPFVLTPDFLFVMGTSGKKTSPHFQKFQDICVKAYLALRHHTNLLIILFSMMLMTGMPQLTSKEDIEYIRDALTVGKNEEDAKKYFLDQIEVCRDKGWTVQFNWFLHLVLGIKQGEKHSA

Turning to `[2H]C([2H])([2H])c1ccc(S(=O)(=O)NC23CC(C2)N(C(C)C)C3)cc1-c1cnc(N)c(-n2cncn2)n1` [Example 60, 3-(5-Amino-6-(1H-1,2,4-triazol-1-yl)pyrazin-2-yl)-N-(2-isopropyl-2-azabicyclo[2.1.1]hexan-4-yl)-4-(methyl-d3)benzenesulfonamide Trifluoroacetate Salt], the IC50 in assay [1] was not above 100 nM; in assay [2], not above 500 nM.

As to `[2H]C([2H])([2H])c1ccc(S(=O)(=O)NC23CC(CO)(C2)C3)cc1-c1cnc(N)c(-n2nccn2)n1` [Example 51, 3-(5-Amino-6-(2H-1,2,3-triazol-2-yl)pyrazin-2-yl)-N-(3-(hydroxymethyl)bicyclo[1.1.1]pentan-1-yl)-4-(methyl-d3)benzenesulfonamide Trifluoroacetate Salt], the figures for the IC50 in assay [1] and in assay [2] were not above 100 nM and less than 2000 nM, respectively.

In the case of `Cc1ccc(S(=O)(=O)NC23CC(C#N)(C2)C3)cc1-c1cnc(N)c(-c2nn[nH]n2)n1` [Example 36, 3-(5-Amino-6-(2H-tetrazol-5-yl)pyrazin-2-yl)-N-(3-cyanobicyclo[1.1.1]pentan-1-yl)-4-methylbenzenesulfonamide Trifluoroacetate Salt], the figures for the IC50 in assay [1] and in assay [2] were not above 100 nM and not below 2000 nM, respectively.

In the case of `Cc1ccc(S(=O)(=O)NC23CCC(C#N)(C2)C3)cc1-c1cnc(N)c(-c2nn[nH]n2)n1` [Example 37, 3-(5-Amino-6-(2H-tetrazol-5-yl)pyrazin-2-yl)-N-(4-cyanobicyclo[2.1.1]hexan-1-yl)-4-methylbenzenesulfonamide Trifluoroacetate Salt], the IC50 is not above 100 nM in assay [1] and not below 2000 nM in assay [2].

Turning to `Cc1ccc(S(=O)(=O)NC23COC(CO)(C2)C3)cc1-c1cnc(N)c(-c2cn(C)nc2C)c1` [Example 84, 3-(6-amino-5-(1,3-dimethyl-1H-pyrazol-4-yl)pyridin-3-yl)-N-(1-(hydroxymethyl)-2-oxabicyclo[2.1.1]hexan-4-yl)-4-methylbenzenesulfonamide], the IC50 in assay [1] and in assay [2] was not above 500 nM each time.

As to `O=C(O)C(F)(F)F.[2H]C([2H])([2H])c1ccc(S(=O)(=O)NC23CNC(C2)C3)cc1-c1cnc(N)c(-n2cncn2)n1` [Example 53, 3-(5-Amino-6-(1H-1,2,4-triazol-1-yl)pyrazin-2-yl)-N-(2-azabicyclo[2.1.1]hexan-4-yl)-4-(methyl-d3)benzenesulfonamide trifluoroacetate salt], the IC50 was not above 100 nM in assay [1] and not above 500 nM in assay [2].

Regarding `[2H]C([2H])([2H])c1ccc(S(=O)(=O)NC23CNC(C2)C3)cc1-c1cnc(N)c(-n2nccn2)n1` [Example 52, 3-(5-Amino-6-(2H-1,2,3-triazol-2-yl)pyrazin-2-yl)-N-(2-azabicyclo[2.1.1]hexan-4-yl)-4-(methyl-d3)benzenesulfonamide Trifluoroacetate Salt], the IC50 in assay [1] and in assay [2] was not above 500 nM each time.

Turning to `Cc1ccc(S(=O)(=O)NC23CC(C(=O)N(C)C)(C2)C3)cc1-c1cnc(N)c(-n2cncn2)n1` [Example 33, 3-(3-(5-Amino-6-(1H-1,2,4-triazol-1-yl)pyrazin-2-yl)-4-methylphenylsulfonamido)-N,N-dimethylbicyclo[1.1.1]pentane-1-carboxamide trifluoroacetate salt], the half-inhibitory concentration (IC50) in assay [1] was not above 100 nM; in assay [2], not above 500 nM.

For the compound `CNC(=O)C12CC(NS(=O)(=O)c3ccc(C)c(-c4cnc(N)c(-n5cncn5)n4)c3)(C1)C2` [Example 32, 3-(3-(5-Amino-6-(1H-1,2,4-triazol-1-yl)pyrazin-2-yl)-4-methylphenylsulfonamido)-N-methylbicyclo[1.1.1]pentane-1-carboxamide trifluoroacetate Salt], the IC50 in assay [1] is not above 100 nM; in assay [2], less than 2000 nM.
